# Reference: patent publication US20170334899A1, “AMINO-SUBSTITUTED ISOTHIAZOLES” (Bayer Pharma Aktiengesellschaft, priority 2014, published 2017)
# How the values were obtained:
# CDK2/CycE = molecular target: T1, CDK2/CycE (Homo sapiens, UniProt P24941); test: CDK2/CycE kinase assay (TR-FRET); format: biochemical; conditions: avg, read-out: CDK2 avg (IC50 [mol/l])
# T1 construct: GST; purchased ProQinase GmbH (Freiburg, Germany); host or cells: insect cells (Sf9)
# Method in brief: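 GST-tagged human CDK2 and CycE from Sf9 cells, preincubated 15 min with compound, then 25 min at 22° C. with 10 μM ATP and 0.75 μM biotinylated Rb-derived peptide (final). Phospho-substrate read by TR-FRET (anti-pRB pSer807/pSer811, Eu anti-mouse IgG, streptavidin-XL665), 665/620 nm ratio, normalised to no-inhibitor and no-enzyme controls.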
# HeLa = test: Proliferation assay (crystal violet), HeLa; format: cell-based; conditions: Homo sapiens, HeLa, 96 h, HeLa cells; 4 days incubation; crystal violet staining; read-out: IC50 inhibition of proliferation, HeLa
# Method in brief: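 Cells plated at 1000-5000/well with 10% FCS, treated after 24 h with compound at 0.001-10 μM (0.5% DMSO) for 4 days. Glutaraldehyde-fixed, crystal violet-stained, A595 normalised to zero-point plate (0%) and untreated cells (100%); IC50 by 4-parameter fit.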
SMILES,IC50 (CDK2/CycE),IC50 (HeLa)
"Cc1nsc(Nc2ccc(C#N)cn2)c1C(=O)Nc1ccc(OC2CCCN(C(=O)OC(C)(C)C)C2)nc1 (stereo not shown) [Example 36, tert-Butyl 3-({5-[({5-[(5-cyanopyridin-2-yl)amino]-3-methyl-1,2-thiazol-4-yl}-carbonyl)amino]pyridin-2-yl}oxy)piperidine-1-carboxylate]",≥ 20 µM,1.1 µM
"Cc1nsc(Nc2cc(C#N)ccn2)c1C(=O)Nc1ccc(OCCCN)nc1 [Example 44, N-[6-(3-Aminopropoxy)pyridin-3-yl]-5-[(4-cyanopyridin-2-yl)amino]-3-methyl-1,2-thiazole-4-carboxamide]",≥ 20 µM,10 µM
"Cc1nsc(Nc2cc(C#N)ccn2)c1C(=O)Nc1ccc(OC2CCCNC2)nc1 (stereo not shown) [Example 35, 5-[(4-Cyanopyridin-2-yl)amino]-3-methyl-N-[6-(piperidin-3-yloxy)pyridin-3-yl]-1,2-thiazole-4-carboxamide]",≥ 20 µM,10 µM
"Cc1nsc(Nc2cnc3ccccc3n2)c1C(=O)Nc1cccc(C(=O)N[C@@H](CCC(N)=O)C(=O)OC(C)(C)C)c1 [Example 56, tert-butyl N^2-[3-({[3-methyl-5-(quinoxalin-2-ylamino)-1,2-thiazol-4-yl]carbonyl}amino)-benzoyl]glutaminate]",≥ 20 µM,9.8 µM
"Cc1nsc(Nc2nc3c(C(F)(F)F)cccc3s2)c1C(=O)Nc1ccc(OCCO)nc1 [Example 2, N-[6-(2-Hydroxyethoxy)pyridin-3-yl]-3-methyl-5-{[4-(trifluoromethyl)-1,3-benzo-thiazol-2-yl]amino}-1,2-thiazole-4-carboxamide]",≥ 20 µM,4.9 µM

# The remaining lines, values ahead:
IC50 (CDK2/CycE),IC50 (HeLa),SMILES
> 20 µM,0.17 µM,"Cc1nsc(Nc2cnc(C(F)(F)F)cn2)c1C(=O)Nc1ccc(O[C@@H]2CN(CC(F)(F)F)C[C@@H]2F)nc1 [Example 410, N-(6-{[(3R,4S)-4-Fluoro-1-(2,2,2-trifluoroethyl)pyrrolidin-3-yl]oxy}pyridin-3-yl)-3-methyl-5-{[5-(trifluoromethyl)pyrazin-2-yl]amino}-1,2-thiazole-4-carboxamide]"
≥ 20 µM,10 µM,"Cc1nsc(Nc2ccc(C#N)cn2)c1C(=O)Nc1ccc(OC2CCCNC2)nc1 (stereo not shown) [Example 37, 5-[(5-Cyanopyridin-2-yl)amino]-3-methyl-N-[6-(piperidin-3-yloxy)pyridin-3-yl]-1,2-thiazole-4-carboxamide]"
> 20 µM,0.33 µM,"Cc1nsc(Nc2cnc(C(F)(F)F)cn2)c1C(=O)Nc1ccc(OCCN2CCC(F)(F)CC2)nc1 [Example 407, N-{6-[2-(4,4-Difluoropiperidin-1-yl)ethoxy]pyridin-3-yl}-3-methyl-5-{[5-(trifluoromethyl)pyrazin-2-yl]amino}-1,2-thiazole-4-carboxamide]"
> 20 µM,1.3 µM,"Cc1nsc(Nc2cnc(C(F)(F)F)cn2)c1C(=O)Nc1ccc(OCCCNC(=O)C(F)(F)F)nc1 [Example 428, 3-Methyl-N-(6-{3-[(trifluoroacetyl)amino]propoxy}pyridin-3-yl)-5-{[5-(trifluoro-methyl)pyrazin-2-yl]amino}-1,2-thiazole-4-carboxamide]"
> 20 µM,0.41 µM,"Cc1nsc(Nc2cnc(C(F)(F)F)cn2)c1C(=O)Nc1ccc(F)c(O[C@H]2CCN(CC(F)F)C2)c1 [Example 417, N-(3-{[(3S)-1-(2,2-Difluoroethyl)pyrrolidin-3-yl]oxy}-4-fluorophenyl)-3-methyl-5-{[5-(trifluoromethyl)pyrazin-2-yl]amino}-1,2-thiazole-4-carboxamide]"
> 20 µM,> 10 µM,"Cc1nsc(Nc2cnc(C(F)(F)F)cn2)c1C(=O)Nc1ccc(OC2CCNCC2)c(F)c1 [Example 431, N-[3-Fluoro-4-(piperidin-4-yloxy)phenyl]-3-methyl-5-{[5-(trifluoromethyl)pyrazin-2-yl]amino}-1,2-thiazole-4-carboxamide]"
